Measured values published in patent publication US8367873B2, “Phenyl-substituted bicyclooctane-1,3-dione derivatives” (Bayer Cropscience AG, priority 2008, dated 2013).

Key:
Assay type in all cases: in vivo
[1] = tested on: Alopecurus myosuroides; assay: Herbicidal pre-emergence action; conditions: pre-emergence method, 80 g/ha, greenhouse, visual assessment vs untreated controls
Source text: (§1) Seeds of monocotylidonous and dicotylidonous weed and crop plants are placed in sandy loam in wood fibre pots and covered with soil. The test compounds, formulated in the form of wettable powders (WP), are then, as an aqueous suspension with a water application rate of 600 l/ha (converted), with 0.2% of wetting agent added, applied to the surface of the covering soil in different amounts.
(§2) After the treatment, the pots are placed in a greenhouse and kept under good growth conditions for the test plants. The visual assessment of the emergence damage on the test plants is carried out after a trial period of three weeks by comparison with the untreated controls (herbicidal effect in percent: 100% effect=the plants have died, 0% effect=like control plants).

[2] = tested on: Echinocloa crus-galli; assay: Herbicidal pre-emergence action; conditions: pre-emergence method, 80 g/ha, greenhouse, visual assessment vs untreated controls
Source text: as §1, §2

[3] = tested on: Lolium multiflorum; assay: Herbicidal pre-emergence action; conditions: pre-emergence method, 80 g/ha, greenhouse, visual assessment vs untreated controls
Source text: as §1, §2

[4] = tested on: Setaria viridis; assay: Herbicidal pre-emergence action; conditions: pre-emergence method, 80 g/ha, greenhouse, visual assessment vs untreated controls
Source text: as §1, §2

[5] = tested on: Alopecurus myosuroides; assay: Herbicidal post-emergence action; conditions: post-emergence method; for herbicidal effect against ALOMY (Alopecurus myosuroides): 80 g/ha
Outline: (§3)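 Percent herbicidal effect (0% like control, 100% plants dead) was rated by eye roughly three weeks post-treatment. Treatment was a post-emergence spray of wettable-powder formulations at different doses, 600 l/ha water with 0.2% wetter, onto one-leaf-stage weeds and crops grown in greenhouse pots.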

[6] = tested on: Echinocloa crus-galli; assay: Herbicidal post-emergence action; conditions: post-emergence method; for herbicidal effect against ECHCG (Echinochloa crus-galli): 80 g/ha
Outline: as §3

[7] = tested on: Lolium multiflorum; assay: Herbicidal post-emergence action; conditions: post-emergence method; for herbicidal effect against LOLMU (Lolium multiflorum): 80 g/ha
Outline: as §3

[8] = tested on: Setaria viridis; assay: Herbicidal post-emergence action; conditions: post-emergence method; for herbicidal effect against SETVI (Setaria viridis): 80 g/ha
Outline: as §3

[9] = tested on: monocotylidonous and dicotylidonous weed and crop plants; assay: Herbicidal pre-emergence action (other test plants); conditions: pre-emergence method, 80 g/ha, greenhouse, visual assessment vs untreated controls
Source text: as §1, §2

[10] = tested on: monocotylidonous and dicotylidonous weed and crop plants; assay: Herbicidal post-emergence action (other test plants); conditions: post-emergence method; for herbicidal effect against AVEFA (Avena fatua): 80 g/ha
Outline: as §3

| Compound | herbicidal effect ALOMY [1] [%] | herbicidal effect ECHCG [2] [%] | herbicidal effect LOLMU [3] [%] | herbicidal effect SETVI [4] [%] | herbicidal effect against ALOMY (Alopecurus myosuroides) [5] [%] | herbicidal effect against ECHCG (Echinochloa crus-galli) [6] [%] | herbicidal effect against LOLMU (Lolium multiflorum) [7] [%] | herbicidal effect against SETVI (Setaria viridis) [8] [%] | herbicidal effect AVEFA [9] [%] | herbicidal effect against AVEFA (Avena fatua) [10] [%] | pest or weed control at 80 g/ha ([5]; Alopecurus myosuroides, 504 h, read-out: herbicidal effect against ALOMY (Alopecurus myosuroides)) [%] | pest or weed control at 80 g/ha ([6]; Echinochloa crus-galli, 504 h, read-out: herbicidal effect against ECHCG (Echinochloa crus-galli)) [%] | pest or weed control at 80 g/ha ([7]; Lolium multiflorum, 504 h, read-out: herbicidal effect against LOLMU (Lolium multiflorum)) [%] | pest or weed control at 80 g/ha ([8]; Setaria viridis, 504 h, read-out: herbicidal effect against SETVI (Setaria viridis)) [%] | pest or weed control at 80 g/ha ([10]; 504 h, Avena fatua, read-out: herbicidal effect against AVEFA (Avena fatua)) [%] |
| --- | --- | --- | --- | --- | --- | --- | --- | --- | --- | --- | --- | --- | --- | --- | --- |
| COc1cc(C)cc(C)c1C1=C([O-])C2CC3(CC2C1=O)OCCCCO3.[Na+] (centres unmarked) [I-f-5] | 90 | 70 | 90 | 90 | 100 | 100 | 100 | 100 | 70 | 100 | – | – | – | – | – |
| CCc1cc(C)cc(CC)c1C1=C(O)C2CC3(CC2C1=O)OC(C)CC(C)O3 (centres unmarked) [I-a-15] | 80 | 70 | 100 | 70 | 90 | 100 | 100 | 90 | 40 | 90 | – | – | – | – | – |
| CCc1cc(C)cc(CC)c1C1=C([O-])C2CC3(CC2C1=O)OCC(OCc1ccccc1)CO3.[Na+] (centres unmarked) [I-f-16] | 80 | 60 | 90 | 90 | 100 | 100 | 100 | 100 | 80 | 100 | – | – | – | – | – |
| CCc1cc(C)cc(CC)c1C1=C(OC(=O)OC(C)C)C2CC3(CC2C1=O)OCCS3 (mixture of isomers) [I-c-33] | 90 | 90 | 100 | 60 | 80 | 100 | 90 | 80 | 90 | 90 | – | – | – | – | – |
| CCOC1COC2(CC3C(=O)C(c4c(CC)cc(C)cc4CC)=C(OC(=O)OC)C3C2)OC1 (centres unmarked) [I-c-27] | 100 | 100 | 100 | 90 | 100 | 100 | 100 | 100 | 80 | 100 | – | – | – | – | – |
| C=C1CC2C(=O)C(c3c(C)cc(C)cc3C)=C(OC(=O)C(C)C)C2C1 (centres unmarked) [I-b-38] | 80 | 80 | 60 | 80 | 40 | 90 | 70 | 90 | 70 | 0 | – | – | – | – | – |
| CCc1cc(C)cc(C)c1C1=C(OC(=O)OC)C2CC3(CC2C1=O)OCC=CCO3 (racemic) [I-c-73] | 70 | 50 | 100 | 60 | 100 | 100 | 100 | 100 | 40 | 0 | – | – | – | – | – |
| CCOC(=O)OC1=C(c2c(C)cc(C)cc2C)C(=O)C2CC3(CC12)OCCCCO3 (racemic) [I-c-50] | 30 | 0 | 100 | 0 | 60 | 80 | 100 | 80 | 0 | 0 | – | – | – | – | – |
| CCOC(=O)OC1=C(c2c(CC)cc(C)cc2CC)C(=O)C2CC3(CC12)OC(C)CC(C)O3 (centres unmarked) [I-c-13] | 90 | 60 | 80 | 60 | 70 | 100 | 100 | 90 | 50 | 80 | – | – | – | – | – |
| COc1cc(C)cc(C)c1C1=C(O)C2CC3(CC2C1=O)OCCCCO3 (centres unmarked) [I-a-50] | 100 | 80 | 100 | 70 | 100 | 100 | 100 | 100 | 60 | 100 | – | – | – | – | – |
| COc1cc(C)cc(C)c1C1=C(OC(=O)C(C)C)C2CC3(CC2C1=O)OCCO3 (centres unmarked) [I-b-65] | 60 | 90 | 100 | 70 | 90 | 100 | 100 | 100 | 70 | 90 | – | – | – | – | – |
| CCc1cc(C)cc(CC)c1C1=C(OC(C)=O)[C@H]2C[C@@]3(COC(C)(C)O3)C[C@H]2C1=O [I-b-1] | 90 | 40 | 100 | 70 | – | – | – | – | 40 | – | 100 | 100 | 100 | 40 | 60 |
| CCOC1COC2(C[C@@H]3C(O)=C(c4c(CC)cc(C)cc4CC)C(=O)[C@@H]3C2)OC1 (relative stereo) [I-a-28] | 100 | 100 | 100 | 90 | 100 | 100 | 100 | 100 | 80 | 100 | – | – | – | – | – |
| CCC(=O)OC1=C(c2c(C)cc(C)cc2CC)C(=O)C2CC3(COC(C)(C)O3)CC12 (centres unmarked) [I-b-67] | 90 | 100 | 100 | 90 | 100 | 100 | 100 | 90 | 90 | 70 | – | – | – | – | – |
| CCOC(=O)OC1=C(c2c(CC)cc(C)cc2CC)C(=O)C2CC3(CC12)OCC(OCC)CO3 (centres unmarked) [I-c-26] | 100 | 100 | 100 | 100 | 100 | 100 | 100 | 100 | 80 | 100 | – | – | – | – | – |
| CCc1cc(C)cc(CC)c1C1=C(OC(=O)OC(C)C)C2CC3(CC2C1=O)OCCCO3 (centres unmarked) [I-c-34] | 90 | 100 | 100 | 80 | 100 | 100 | 100 | 90 | 60 | 100 | – | – | – | – | – |
| CCc1cc(C)cc(CC)c1C1=C(OC(=O)OC(C)C)C2CC3(COC(C)(C)O3)CC2C1=O (centres unmarked) [I-c-2] | 90 | 40 | 100 | 60 | 90 | 40 | 100 | 40 | 50 | 40 | – | – | – | – | – |
